Measured values as given in publication PMC7316778 (Nature Communications, 2020).
“And” between values parts separate entries of the source, which are not always exact repeats. Identical values can stand only once. Like-named read-outs stand apart in the source and are kept apart here.

Experiments:
Experiment in all cases: SelectScreen kinase assay
EPHB2 = target: T1, EPHB2 (Homo sapiens, UniProt P29323); conditions: for Inhibition at 1 µM (%): EPHB2, ZLYTE, ATP Km app
T1 sequence (P29323 19-1055): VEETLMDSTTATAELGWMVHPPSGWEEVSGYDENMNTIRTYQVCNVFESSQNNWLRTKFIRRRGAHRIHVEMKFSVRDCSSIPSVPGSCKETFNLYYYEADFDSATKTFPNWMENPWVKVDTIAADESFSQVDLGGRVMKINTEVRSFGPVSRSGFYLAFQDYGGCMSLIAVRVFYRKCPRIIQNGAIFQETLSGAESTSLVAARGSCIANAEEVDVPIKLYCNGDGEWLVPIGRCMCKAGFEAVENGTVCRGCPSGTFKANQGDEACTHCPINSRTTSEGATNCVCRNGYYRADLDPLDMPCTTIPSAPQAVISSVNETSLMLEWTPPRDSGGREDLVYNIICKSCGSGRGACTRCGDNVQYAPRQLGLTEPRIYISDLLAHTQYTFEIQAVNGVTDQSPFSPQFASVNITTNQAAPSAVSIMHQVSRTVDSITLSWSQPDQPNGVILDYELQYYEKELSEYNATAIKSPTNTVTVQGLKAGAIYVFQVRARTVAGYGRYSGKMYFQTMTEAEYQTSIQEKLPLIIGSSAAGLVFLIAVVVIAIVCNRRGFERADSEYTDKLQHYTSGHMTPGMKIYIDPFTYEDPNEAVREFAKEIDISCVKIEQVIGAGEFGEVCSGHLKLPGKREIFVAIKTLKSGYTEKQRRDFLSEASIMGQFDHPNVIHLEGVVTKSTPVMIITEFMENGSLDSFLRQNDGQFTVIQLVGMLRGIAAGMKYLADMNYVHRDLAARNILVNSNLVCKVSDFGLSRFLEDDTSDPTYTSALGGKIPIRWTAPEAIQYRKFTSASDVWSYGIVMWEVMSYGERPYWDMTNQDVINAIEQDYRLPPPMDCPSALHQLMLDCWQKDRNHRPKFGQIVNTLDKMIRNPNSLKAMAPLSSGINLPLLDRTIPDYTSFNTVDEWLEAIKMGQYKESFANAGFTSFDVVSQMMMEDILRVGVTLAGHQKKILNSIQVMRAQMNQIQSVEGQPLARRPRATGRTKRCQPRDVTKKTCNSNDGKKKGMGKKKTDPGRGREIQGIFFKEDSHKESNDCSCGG
Experimental: (§1) Selectivity profiling assays were performed by the Invitrogen SelectScreen™ Services. […] The concentration of ATP was selected to be equal to the KM, unless indicated otherwise.

MARK1 (MARK) = MARK1 (MARK) (Homo sapiens, UniProt Q9P0L2)
MARK1 (MARK), sequence (Q9P0L2 whole entry): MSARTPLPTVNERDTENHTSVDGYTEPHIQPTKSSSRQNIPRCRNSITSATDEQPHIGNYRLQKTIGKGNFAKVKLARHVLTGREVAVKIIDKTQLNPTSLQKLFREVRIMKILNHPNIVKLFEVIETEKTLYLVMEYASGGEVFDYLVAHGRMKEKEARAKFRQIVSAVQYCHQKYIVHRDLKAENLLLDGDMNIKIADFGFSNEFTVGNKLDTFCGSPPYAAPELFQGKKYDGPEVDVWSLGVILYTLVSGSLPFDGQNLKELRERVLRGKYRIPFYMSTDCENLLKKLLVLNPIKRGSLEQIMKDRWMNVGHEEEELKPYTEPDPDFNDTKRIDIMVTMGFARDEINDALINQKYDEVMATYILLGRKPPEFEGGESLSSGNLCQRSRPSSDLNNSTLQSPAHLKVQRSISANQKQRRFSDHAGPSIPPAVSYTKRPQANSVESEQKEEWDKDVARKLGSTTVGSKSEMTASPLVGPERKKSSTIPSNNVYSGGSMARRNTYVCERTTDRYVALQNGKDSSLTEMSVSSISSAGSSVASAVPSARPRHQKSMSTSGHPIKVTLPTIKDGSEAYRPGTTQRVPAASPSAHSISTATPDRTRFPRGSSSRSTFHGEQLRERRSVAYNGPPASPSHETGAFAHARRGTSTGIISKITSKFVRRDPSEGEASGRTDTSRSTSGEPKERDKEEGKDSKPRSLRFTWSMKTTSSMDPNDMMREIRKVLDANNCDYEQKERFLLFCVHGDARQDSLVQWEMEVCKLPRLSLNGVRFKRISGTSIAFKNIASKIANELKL
Experimental: as §1

RPS6KB2 (p70S6Kb) = RPS6KB2 (p70S6Kb) (Homo sapiens, UniProt Q9UBS0)
RPS6KB2 (p70S6Kb), sequence (Q9UBS0 whole entry): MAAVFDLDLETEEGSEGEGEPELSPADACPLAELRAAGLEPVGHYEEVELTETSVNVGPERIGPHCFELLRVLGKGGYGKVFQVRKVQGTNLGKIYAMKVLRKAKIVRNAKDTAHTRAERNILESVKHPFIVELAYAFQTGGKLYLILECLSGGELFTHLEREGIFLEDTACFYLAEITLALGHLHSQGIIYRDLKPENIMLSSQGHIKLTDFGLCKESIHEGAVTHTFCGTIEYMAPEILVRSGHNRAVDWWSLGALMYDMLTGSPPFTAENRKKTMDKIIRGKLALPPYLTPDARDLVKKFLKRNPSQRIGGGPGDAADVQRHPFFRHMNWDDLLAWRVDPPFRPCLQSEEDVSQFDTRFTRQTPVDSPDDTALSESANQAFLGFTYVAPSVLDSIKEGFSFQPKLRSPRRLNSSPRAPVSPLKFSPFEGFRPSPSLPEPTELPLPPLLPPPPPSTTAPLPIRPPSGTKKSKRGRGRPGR
Experimental: as §1

PEAK1 = PEAK1 (Homo sapiens, UniProt Q9H792)
PEAK1, sequence (Q9H792 whole entry): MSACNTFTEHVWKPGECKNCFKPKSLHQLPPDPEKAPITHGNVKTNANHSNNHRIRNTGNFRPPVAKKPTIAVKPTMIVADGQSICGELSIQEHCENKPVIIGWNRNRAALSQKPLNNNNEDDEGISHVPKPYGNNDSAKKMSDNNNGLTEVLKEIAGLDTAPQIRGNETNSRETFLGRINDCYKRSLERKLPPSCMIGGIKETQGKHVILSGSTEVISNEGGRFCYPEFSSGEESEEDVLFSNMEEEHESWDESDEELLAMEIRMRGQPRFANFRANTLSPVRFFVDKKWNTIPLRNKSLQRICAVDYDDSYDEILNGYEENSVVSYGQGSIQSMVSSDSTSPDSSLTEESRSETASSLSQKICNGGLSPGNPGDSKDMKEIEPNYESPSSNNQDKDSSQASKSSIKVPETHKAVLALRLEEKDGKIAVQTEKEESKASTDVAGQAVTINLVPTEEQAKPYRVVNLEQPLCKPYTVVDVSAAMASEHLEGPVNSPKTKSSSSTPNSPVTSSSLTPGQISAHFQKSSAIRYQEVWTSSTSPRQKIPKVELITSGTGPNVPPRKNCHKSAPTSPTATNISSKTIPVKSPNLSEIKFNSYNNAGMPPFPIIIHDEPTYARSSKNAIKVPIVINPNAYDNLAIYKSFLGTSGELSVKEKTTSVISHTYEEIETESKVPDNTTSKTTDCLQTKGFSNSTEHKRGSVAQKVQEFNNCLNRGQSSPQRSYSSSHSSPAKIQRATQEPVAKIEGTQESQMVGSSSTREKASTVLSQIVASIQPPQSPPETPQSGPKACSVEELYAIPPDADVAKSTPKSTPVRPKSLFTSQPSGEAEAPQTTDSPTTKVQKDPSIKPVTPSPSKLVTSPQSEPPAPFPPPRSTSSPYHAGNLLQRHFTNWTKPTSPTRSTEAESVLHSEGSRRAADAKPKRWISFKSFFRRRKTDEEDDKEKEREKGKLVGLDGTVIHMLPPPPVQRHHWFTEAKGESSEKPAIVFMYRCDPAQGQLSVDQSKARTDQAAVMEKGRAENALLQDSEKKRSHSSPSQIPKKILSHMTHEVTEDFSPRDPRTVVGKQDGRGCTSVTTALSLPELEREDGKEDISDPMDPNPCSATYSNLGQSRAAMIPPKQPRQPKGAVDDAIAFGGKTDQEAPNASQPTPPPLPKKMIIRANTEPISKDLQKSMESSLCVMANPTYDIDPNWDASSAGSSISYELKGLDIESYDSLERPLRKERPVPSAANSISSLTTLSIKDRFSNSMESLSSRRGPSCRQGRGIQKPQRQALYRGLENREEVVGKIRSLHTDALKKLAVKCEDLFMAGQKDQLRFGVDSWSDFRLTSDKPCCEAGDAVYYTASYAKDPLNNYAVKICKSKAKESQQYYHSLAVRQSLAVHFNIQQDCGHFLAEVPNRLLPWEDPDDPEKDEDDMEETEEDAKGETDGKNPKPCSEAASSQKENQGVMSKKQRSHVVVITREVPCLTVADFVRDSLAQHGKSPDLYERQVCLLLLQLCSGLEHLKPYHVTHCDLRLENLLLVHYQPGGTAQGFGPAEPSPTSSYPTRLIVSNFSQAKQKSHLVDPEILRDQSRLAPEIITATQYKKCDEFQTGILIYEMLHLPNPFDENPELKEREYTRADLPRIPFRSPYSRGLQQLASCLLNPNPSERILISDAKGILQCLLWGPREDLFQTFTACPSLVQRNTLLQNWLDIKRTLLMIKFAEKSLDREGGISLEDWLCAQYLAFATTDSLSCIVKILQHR
Experimental: as §1

PHKG1 = PHKG1 (Homo sapiens, UniProt Q16816); conditions: 1 h, 1 μM WEL028, 1 h preincubation
Experimental: as §1

MELK = MELK (Homo sapiens, UniProt Q14680)
MELK, sequence (Q14680 whole entry): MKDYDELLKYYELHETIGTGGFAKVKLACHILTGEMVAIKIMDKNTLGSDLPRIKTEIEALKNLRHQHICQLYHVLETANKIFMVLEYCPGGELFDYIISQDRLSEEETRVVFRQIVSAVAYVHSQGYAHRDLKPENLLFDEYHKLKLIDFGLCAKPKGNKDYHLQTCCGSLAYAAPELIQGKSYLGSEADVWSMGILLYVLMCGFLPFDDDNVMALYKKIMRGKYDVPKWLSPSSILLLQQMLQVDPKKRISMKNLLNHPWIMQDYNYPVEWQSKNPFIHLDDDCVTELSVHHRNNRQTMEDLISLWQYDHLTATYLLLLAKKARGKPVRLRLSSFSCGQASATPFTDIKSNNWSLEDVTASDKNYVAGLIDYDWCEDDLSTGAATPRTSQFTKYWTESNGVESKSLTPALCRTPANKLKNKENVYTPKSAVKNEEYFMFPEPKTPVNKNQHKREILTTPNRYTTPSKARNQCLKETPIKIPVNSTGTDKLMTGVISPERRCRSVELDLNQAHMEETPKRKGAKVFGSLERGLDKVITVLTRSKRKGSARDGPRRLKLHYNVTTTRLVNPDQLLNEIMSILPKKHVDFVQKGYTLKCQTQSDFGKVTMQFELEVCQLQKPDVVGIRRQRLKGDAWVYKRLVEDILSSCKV
Experimental: as §1

ACVR1B (ALK4) = target: T2, ACVR1B (ALK4) (Homo sapiens, UniProt P36896); conditions: for Inhibition at 1 µM (%): ACVR1B (ALK4), ZLYTE, ATP Km app
T2 sequence (P36896 24-505): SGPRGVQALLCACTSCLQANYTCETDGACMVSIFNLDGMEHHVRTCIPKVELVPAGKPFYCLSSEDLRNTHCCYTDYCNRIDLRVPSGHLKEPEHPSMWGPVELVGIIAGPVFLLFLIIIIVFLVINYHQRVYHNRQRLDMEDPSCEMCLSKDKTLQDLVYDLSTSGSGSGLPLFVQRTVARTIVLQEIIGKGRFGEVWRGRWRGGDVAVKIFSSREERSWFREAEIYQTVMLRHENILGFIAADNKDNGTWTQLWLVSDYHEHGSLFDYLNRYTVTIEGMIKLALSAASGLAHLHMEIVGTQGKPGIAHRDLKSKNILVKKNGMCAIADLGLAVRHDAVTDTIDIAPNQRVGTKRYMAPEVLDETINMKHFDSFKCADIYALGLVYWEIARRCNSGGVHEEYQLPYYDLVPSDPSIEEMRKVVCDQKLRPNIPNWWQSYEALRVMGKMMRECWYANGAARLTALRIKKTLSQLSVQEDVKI
Experimental: as §1

CAMKK2 (CaMKK beta) = CAMKK2 (CaMKK beta) (Homo sapiens, UniProt Q96RR4)
CAMKK2 (CaMKK beta), sequence (Q96RR4 whole entry): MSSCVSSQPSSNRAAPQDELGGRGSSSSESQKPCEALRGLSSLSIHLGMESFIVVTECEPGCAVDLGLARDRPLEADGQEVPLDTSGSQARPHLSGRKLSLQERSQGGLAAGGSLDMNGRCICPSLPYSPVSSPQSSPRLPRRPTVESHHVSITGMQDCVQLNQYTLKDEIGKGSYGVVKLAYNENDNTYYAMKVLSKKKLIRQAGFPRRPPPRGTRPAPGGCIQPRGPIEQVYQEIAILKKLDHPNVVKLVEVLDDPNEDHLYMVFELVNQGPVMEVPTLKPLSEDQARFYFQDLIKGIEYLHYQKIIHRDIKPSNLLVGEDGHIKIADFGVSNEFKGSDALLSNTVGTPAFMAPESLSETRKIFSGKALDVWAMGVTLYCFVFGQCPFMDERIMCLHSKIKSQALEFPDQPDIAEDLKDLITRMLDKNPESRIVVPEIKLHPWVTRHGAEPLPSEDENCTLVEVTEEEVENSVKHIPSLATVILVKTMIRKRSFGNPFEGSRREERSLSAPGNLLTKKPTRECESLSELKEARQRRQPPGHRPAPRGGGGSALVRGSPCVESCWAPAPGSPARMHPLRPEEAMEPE
Experimental: as §1

DYRK1B = DYRK1B (Homo sapiens, UniProt Q9Y463); conditions: 1 h, 1 μM WEL028, 1 h preincubation
DYRK1B, sequence (Q9Y463 whole entry): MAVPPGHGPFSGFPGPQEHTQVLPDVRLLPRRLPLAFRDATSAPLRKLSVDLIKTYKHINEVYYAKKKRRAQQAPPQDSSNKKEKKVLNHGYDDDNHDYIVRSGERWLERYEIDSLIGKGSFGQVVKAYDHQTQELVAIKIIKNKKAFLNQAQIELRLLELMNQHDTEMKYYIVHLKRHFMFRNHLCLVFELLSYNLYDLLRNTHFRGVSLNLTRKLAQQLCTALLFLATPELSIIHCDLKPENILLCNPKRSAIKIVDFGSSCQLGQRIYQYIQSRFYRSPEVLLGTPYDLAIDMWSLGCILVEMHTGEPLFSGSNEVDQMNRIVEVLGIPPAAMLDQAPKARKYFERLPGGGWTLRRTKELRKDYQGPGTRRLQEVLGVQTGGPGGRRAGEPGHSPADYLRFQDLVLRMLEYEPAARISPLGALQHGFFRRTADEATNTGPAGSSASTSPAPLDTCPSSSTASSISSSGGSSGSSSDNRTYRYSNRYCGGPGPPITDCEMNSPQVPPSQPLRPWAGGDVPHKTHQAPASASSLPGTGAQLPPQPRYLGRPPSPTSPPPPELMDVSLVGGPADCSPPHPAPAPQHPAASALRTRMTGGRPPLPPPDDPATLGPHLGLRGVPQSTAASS
Experimental: as §1

[1] = 1 h, 1 μM WEL028, 1 h preincubation

`C#CCOc1ccc(Nc2ncc(Cl)c(Nc3ccccc3NC(=O)C=C)n2)c(OC)c1` [Compound 6] was tested, and the “Inhibition (%)” value (EPHB2; 1 μM WEL028, 1 h preincubation) was 4%, the “Inhibition at 1 µM (%)” value (EPHB2) was 2% and the “Inhibition at 1 µM (%)” value (EPHB2; listed as WEL028, 1 µM) was 5%. For the same molecule, the inhibition at 1 µM (MARK1 (MARK); [1]) was 1%, the “Inhibition at 1 µM (%)” value (MARK1 (MARK); MARK1 (MARK), 1 µM, ZLYTE, ATP Km app, listed as WEL028, 1 µM) was -1% and 4% and the “Inhibition at 1 µM (%)” value (RPS6KB2 (p70S6Kb); 1 µM, ZLYTE, ATP Km app, listed as WEL028, 1 µM) was 1% and 4%. The inhibition at 1 µM (RPS6KB2 (p70S6Kb); [1]) was 3%, the inhibition at 1 µM (PEAK1; [1]) was 7% and the “Inhibition at 1 µM (%)” value (PEAK1; PEAK1, 1 µM, ZLYTE, ATP Km app, listed as WEL028, 1 µM) was 8%. The inhibition at 1 µM (PEAK1; read-out: Inhibition at 1 µM (%), PEAK1, 1 µM, ZLYTE, ATP Km app) was 6%, the inhibition at 1 µM (PHKG1) was -2% and the inhibition at 1 µM (MELK; [1]) was -2%. For the same molecule, the “Inhibition at 1 µM (%)” value (MELK; MELK, 1 µM, ZLYTE, ATP Km app, listed as WEL028, 1 µM) was -3%, the inhibition at 1 µM (ACVR1B (ALK4); [1]) was 1% and the “Inhibition at 1 µM (%)” value (ACVR1B (ALK4)) was -2%. For the same molecule, the “Inhibition at 1 µM (%)” value (ACVR1B (ALK4); listed as WEL028, 1 µM) was 5%, the inhibition at 1 µM (CAMKK2 (CaMKK beta); 1 h) was 23% and the inhibition at 1 µM (CAMKK2 (CaMKK beta); read-out: Inhibition at 1 µM (%)) was 23%. It also gave an inhibition at 1 µM (DYRK1B) of 0%.
